Legend:
[1] = Solubility of L-cystine neutralized with fatty acids, HPLC (Example 5); conditions: for Solubility ppm cystine: excess L-cystine in NaOH neutralized with the named acid, equilibrated at least 72 hours, filtered, HPLC, 3 replicas; for pH: pH of the cystine solution neutralized with the named acid
Experimental: Solubility of cystine was determined in the presence of alternative fatty acids. […] The precipitate upon neutralization was equilibrated with saturated solution for at least 72 hours. The solutions were then filtered through 0.45 micrometer PTFE or nylon (for C12) syringe filter and analysed on HPLC for cystine concentration.

[2] = Microscopy of cystine crystals recrystallized from high pH solution in hystric acid/KOH acid soap mixtures (Example 1); assay type: physicochemical
Experimental: The size of crystals can be estimated by microscopy.
The soap/acid emulsions were prepared using hystric acid (55% palmitic acid/45% stearic acid) by melting the hystric acid at 75° C. and adding this melted acid to aqueous phase consisting of KOH. […] Solubilized cystine in high pH solution was then added to the acid/soap mixture as high pH solution. Depending on the procedure of addition, differences in final formulations have been achieved.
Formula A was prepared by dissolving the cystine in hot KOH solution. Melted hystric acid was then added to this hot (75° C.) aqueous solution of cystine, mixed and let cool down to room temperature while mixing. Formula B was prepared by adding the melted hystric acid to hot KOH solution, and adding the high pH solution of cystine while mixing all ingredients at 75° C. Formula C was prepared by adding the melted hystric acid to hot KOH solution, creating thus soap, cooling the soap to 50° C. and then adding the high pH solution of cystine The resulting acid soap mixtures were observed under microscope for the formation of cystine crystals. […] Addition of cystine solution to acid soap mixture at 50-60° C. is preferred as only small particles are formed. At this temperature the majority of acid soap exists in lamellar liquid crystal or lamellar gel with vary narrow aqueous layer creating a restrictive environment for cystine crystal growth. […]

[3] = Experimental: Additional samples with decreasing concentration of cystine were prepared to find the solubility limit for cystine in acid soap mixture. Samples in table 2 were prepared by Process A in table 1.
The samples were evaluated under microscope on the hot plate at 80° C.

[4] = remark: listed apart in the source
Experimental: The compositional examples are in the table 3 below. The samples in table 3 were prepared by process C in table 1.
The results in Table 3 illustrate that other ingredients can be added to the inventive compositions, as long as lamellar bilayer liquid crystal or liquid gel structure remains intact.

[5] = cited from earlier work

Compound	average particle size of cystine ([2]; added from high pH solution to fatty acid-soap lamellar liquid crystal or lamellar gel)	cystine crystal size ([2]; cystine added at 75 C-80° C. when in the form of oil-in-water emulsion)	solubility of cystine in the hystric acid acid/soap media [3]	solubility of cystine, minimal concentration [4]	Solubility ppm cystine [1] [ppm]	pH [1]	natural solubility of cystine [5] [ppm]
CCCCCCCC/C=C\CCCCCCCC(=O)O [Oleic acid (C18:1), Oleic acid]	–	–	–	–	246.8	7.3	–
CCCCCCCCCCCC(=O)O [Dodecanoic (C12) with KOH, Dodecanoic]	–	–	–	–	490.6	7.6	–
CCCCCCCCCCCC(=O)O [Dodecanoic (C12) with NaOH, Dodecanoic]	–	–	–	–	575	7.6	–
O=C(O)/C=C\C(=O)O [Maleic]	–	–	–	–	181.6	6.6	–
N[C@@H](CSSC[C@H](N)C(=O)O)C(=O)O [cystine]	less than 20 micrometers	greater than 20 micrometers	greater than 700 ppm	greater than 600 ppm	–	–	100

— patent US11666519B2, “Personal care compositions with cystine” (Conopco, Inc., priority 2016, dated 2023)
